Data on 26 compounds can be found in ChEMBL document CHEMBL4190178 (Medchemcomm, 2016).

SMILES strings stand for the structures. pEC50: −log10 of the molar value. Active and inactive are the calls of the source. No cut-off for these calls is given here. Where only a bound is given, the exact number is not on record here.

Series [1] concerns LNCaP. The series can be described thus: Cytotoxicity against human LNCAP cells assessed as reduction in cell viability after 24 hrs by MTT assay. In kind it is functional, cell-based. On the technique in general: Formazan colour is commonly taken as a measure of viable cells.
The target in series [2] is T1, Alpha-1A adrenergic receptor (Homo sapiens) (UniProt P35348).
T1 sequence (whole entry): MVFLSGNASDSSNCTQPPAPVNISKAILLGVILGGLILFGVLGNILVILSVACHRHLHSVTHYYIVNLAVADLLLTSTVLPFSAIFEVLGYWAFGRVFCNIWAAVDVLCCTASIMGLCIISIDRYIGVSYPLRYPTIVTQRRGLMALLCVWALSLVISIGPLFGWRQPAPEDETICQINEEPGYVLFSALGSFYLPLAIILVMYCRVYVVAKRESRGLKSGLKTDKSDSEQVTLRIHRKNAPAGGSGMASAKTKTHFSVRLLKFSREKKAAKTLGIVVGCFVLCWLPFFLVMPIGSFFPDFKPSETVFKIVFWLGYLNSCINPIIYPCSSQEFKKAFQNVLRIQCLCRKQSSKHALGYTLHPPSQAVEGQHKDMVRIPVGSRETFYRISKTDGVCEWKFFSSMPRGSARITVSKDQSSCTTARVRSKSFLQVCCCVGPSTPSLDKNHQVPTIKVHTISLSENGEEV
The series can be described thus: Antagonist activity at human alpha1A adrenergic receptor expressed in Chem1 cells assessed as decrease in epinephrine-induced calcium mobilization by measuring relative fluorescence unit at 1 uM by fluoforte dye based fluorescence assay relative to epinephrine. In kind it is functional, cell-based. Background: Calcium flux is commonly read through the fluorescence of an indicator in the cells.

Series [3] has as its system Rattus norvegicus. The series can be described thus: Anti-androgenic activity in benign prostatic hyperplasia Sprague-Dawley rat model assessed as reduction in citral-induced prostate weight at 10 mg/kg, po qd co-administered with citral for 21 days starting post 8 days of citral alone treatment. In kind it is functional. More on the design: scale not given: the % may be the effect or the level left.

Series [4] relates to Rattus norvegicus. As to the kind of experiment: Toxicity in benign prostatic hyperplasia Sprague-Dawley rat model assessed as effect on seminal vesicle weight at 10 mg/kg, po qd co-administered with citral for 21 days starting post 8 days of citral alone treatment. In kind it is organism-based. To be noted: in vivo.
Series [5] relates to Rattus norvegicus. The series can be described thus: Toxicity in benign prostatic hyperplasia Sprague-Dawley rat model assessed as effect on testis weight at 10 mg/kg, po qd co-administered with citral for 21 days starting post 8 days of citral alone treatment. In kind it is organism-based. To be noted: in vivo.
For series [6], the system named is Rattus norvegicus. The series can be described thus: Toxicity in benign prostatic hyperplasia Sprague-Dawley rat model assessed as effect on epididymis weight at 10 mg/kg, po qd co-administered with citral for 21 days starting post 8 days of citral alone treatment. In kind it is organism-based. The note with it: in vivo.
Series [7] relates to Rattus norvegicus. The series can be described thus: Anti-androgenic activity in citral-induced benign prostatic hyperplasia Sprague-Dawley rat model assessed as reduction in stromal component at 10 mg/kg, po qd co-administered with citral for 21 days starting post 8 days of citral alone treatment by hematoxyline and eosin staining based light microscopic analysis. In kind it is functional, organism-based.

Series [8] has as its system Rattus norvegicus. The series can be described thus: Anti-androgenic activity in citral-induced benign prostatic hyperplasia Sprague-Dawley rat model assessed as reduction in tissue differentiation into stroma at 10 mg/kg, po qd co-administered with citral for 21 days starting post 8 days of citral alone treatment by hematoxyline and eosin staining based light microscopic analysis. In kind it is functional, organism-based.

Series [9] relates to Rattus norvegicus. The series can be described thus: Anti-androgenic activity in citral-induced benign prostatic hyperplasia Sprague-Dawley rat model assessed as reduction in tissue differentiation into acinar compartments at 10 mg/kg, po qd co-administered with citral for 21 days starting post 8 days of citral alone treatment by hematoxyline and eosin staining based light microscopic analysis. In kind it is functional, organism-based.

Series [10] concerns the target T2, Androgen receptor (Homo sapiens) (UniProt P10275).
T2 sequence (whole entry): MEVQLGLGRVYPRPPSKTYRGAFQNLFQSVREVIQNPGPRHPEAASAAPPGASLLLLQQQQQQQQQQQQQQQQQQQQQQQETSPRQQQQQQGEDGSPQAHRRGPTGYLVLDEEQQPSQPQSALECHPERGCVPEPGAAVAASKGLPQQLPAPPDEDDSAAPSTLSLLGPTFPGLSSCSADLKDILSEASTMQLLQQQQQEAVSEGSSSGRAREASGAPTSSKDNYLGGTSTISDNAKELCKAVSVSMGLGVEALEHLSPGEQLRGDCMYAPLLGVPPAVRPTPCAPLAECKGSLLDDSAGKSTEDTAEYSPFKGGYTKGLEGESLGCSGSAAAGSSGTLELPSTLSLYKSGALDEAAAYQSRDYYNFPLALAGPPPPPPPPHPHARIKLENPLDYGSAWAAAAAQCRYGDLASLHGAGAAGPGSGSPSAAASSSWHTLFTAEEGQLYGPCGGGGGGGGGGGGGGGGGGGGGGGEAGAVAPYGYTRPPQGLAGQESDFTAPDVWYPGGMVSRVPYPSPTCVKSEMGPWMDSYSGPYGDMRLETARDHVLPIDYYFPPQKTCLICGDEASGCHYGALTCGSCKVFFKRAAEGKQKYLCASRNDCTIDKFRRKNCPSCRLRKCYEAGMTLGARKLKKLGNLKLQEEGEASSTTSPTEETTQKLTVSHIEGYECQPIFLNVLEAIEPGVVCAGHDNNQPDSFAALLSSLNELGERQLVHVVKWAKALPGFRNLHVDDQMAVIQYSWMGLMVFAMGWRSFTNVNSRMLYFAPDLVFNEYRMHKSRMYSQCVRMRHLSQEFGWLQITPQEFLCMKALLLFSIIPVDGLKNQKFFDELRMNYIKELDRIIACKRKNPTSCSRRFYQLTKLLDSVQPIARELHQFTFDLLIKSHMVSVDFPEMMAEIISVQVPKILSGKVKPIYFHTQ
The series can be described thus: Antagonist activity at androgen receptor in human LNCAP cells assessed as decrease in testosterone-induced PSA expression levels at 10 uM after 24 hrs by Western blot analysis. In kind it is cell-based. Background: A western blot detects proteins with antibodies after separation by electrophoresis.

In series [11] the target is T2, Androgen receptor (Homo sapiens). The series can be described thus: Antagonist activity at human androgen receptor expressed in African green monkey COS7 cells at 7.5 uM after 24 hrs by ARE-dual luciferase reporter gene assay. In kind it is cell-based.
The test system of another series is PC-3. The series can be described thus: Antiproliferative activity against human PC3 cells assessed as decrease in cell viability after 24 hrs by MTT assay. In kind it is functional, cell-based. The note with it: PC-3, 24 h.
A further series concerns DU-145. As to the kind of experiment: Antiproliferative activity against human DU145 cells assessed as decrease in cell viability after 24 hrs by MTT assay. In kind it is functional, cell-based. The note with it: DU-145, 24 h.
Series [12] concerns LNCaP. The series can be described thus: Antiproliferative activity against human LNCAP cells assessed as decrease in cell viability after 24 hrs by MTT assay. In kind it is functional, cell-based.
For series [13], the target named is T1, Alpha-1A adrenergic receptor (Homo sapiens). The series can be described thus: Antagonist activity at human alpha1A adrenergic receptor expressed in Chem1 cells assessed as decrease in epinephrine-induced calcium mobilization by measuring relative fluorescence unit at 10 uM by fluoforte dye based fluorescence assay relative to epinephrine. In kind it is functional, cell-based.

As usually defined, the pEC50 is −log10 of the EC50, conventionally taken in molar units. With `COc1ccccc1N1CCN(C(=O)CN2CCN(c3ccc([N+](=O)[O-])cc3)CC2)CC1`, the pEC50 in the series with LNCaP [1] was 4.20.

In the case of `O=C(N1CCN(c2ccccn2)CC1)N1CCN(c2ccccn2)CC1`, the pEC50 in the series with LNCaP [1] is < 4.10.

In the case of `O=C(CCl)N1CCN(c2ccc([N+](=O)[O-])cc2C(F)(F)F)CC1`, the pEC50 in the series on LNCaP [1] was 4.27.

`O=C(CN1CCN(c2ccccn2)CC1)N1CCN(c2ccc([N+](=O)[O-])cc2)CC1`: in the series on LNCaP [1], the negative logarithm of the EC50 (pEC50) was 4.26.

In the case of `O=C(N1CCN(c2ccc([N+](=O)[O-])cc2)CC1)N1CCN(c2ccccn2)CC1`, the pEC50 with LNCaP [1] is 4.16.

On to `O=C(N1CCN(c2ccc([N+](=O)[O-])cc2)CC1)N1CCN(c2ccc(C(F)(F)F)cc2[N+](=O)[O-])CC1`, for which the pEC50 in the series on LNCaP [1] is < 4.10.

For the compound `CCOc1ccccc1OCCN[C@H](C)Cc1ccc(OC)c(S(N)(=O)=O)c1`, the fold change (FC) in series [2] stood at 1.6.

For the compound `O=C(N1CCN(c2ccc([N+](=O)[O-])cc2)CC1)N1CCN(c2ccc([N+](=O)[O-])cc2)CC1`, the pEC50 with LNCaP [1] was 4.14.

For the compound `O=C(CCl)N1CCN(c2ncccn2)CC1`, the pEC50 in the series on LNCaP [1] was 4.15.

For the compound `COc1ccccc1N1CCN(C(=O)CN2CCN(c3ccccn3)CC2)CC1`, the pEC50 in the series with LNCaP [1] was 4.34.

Consider `CC(C)C(=O)Nc1ccc([N+](=O)[O-])c(C(F)(F)F)c1` [FLUTAMIDE], for which the negative-log EC50 (pEC50) with LNCaP [1] is 5.15. Also, the Activity in the series on Rattus norvegicus [3] was 51.8%; in the series on Rattus norvegicus [4] it was “Non-Toxic”; in the series on Rattus norvegicus [5], “Non-Toxic”; in the series on Rattus norvegicus [6], “Non-Toxic”. The outcome with Rattus norvegicus [7], with Rattus norvegicus [8] and in the series on Rattus norvegicus [9] was Active.

In the case of `O=C(CN1CCN(c2ncccn2)CC1)N1CCN(c2ncccn2)CC1`, the pEC50 in the series with LNCaP [1] is 4.32.

Turning to `O=C(CN1CCN(c2ccccn2)CC1)N1CCN(c2ncccn2)CC1`, the pEC50 in the series on LNCaP [1] is 4.30.

With `O=C(CN1CCN(c2ccc([N+](=O)[O-])cc2C(F)(F)F)CC1)N1CCN(c2ccc([N+](=O)[O-])cc2C(F)(F)F)CC1`, the pEC50 in the series with LNCaP [1] was 4.33.

On to `O=C(CCl)N1CCN(c2ccc([N+](=O)[O-])cc2)CC1`, for which the pEC50 was 5.01 in the series with LNCaP [1], 4.19 with PC-3, < 4.15 in the series with DU-145 and 5.01 in the series on LNCaP [12]. For the same compound, the outcome (in [10]; in series [11]; in the series on Rattus norvegicus [7]; in the series with Rattus norvegicus [8]; in the series with Rattus norvegicus [9]) was Active. For the same compound, the fold change (FC) in [13] was 1.6. The Activity in the series with Rattus norvegicus [3] was 31.6 - 32%; with Rattus norvegicus [4], “Non-Toxic”; in the series on Rattus norvegicus [5], “Non-Toxic”; with Rattus norvegicus [6] it was “Non-Toxic”.

For `COc1ccccc1N1CCN(C(=O)CN2CCN(c3ncccn3)CC2)CC1`, in the series with LNCaP [1], the pEC50 is 4.32.

Take `O=C(N1CCN(c2ccc([N+](=O)[O-])cc2)CC1)N1CCN(c2ccc([N+](=O)[O-])cc2C(F)(F)F)CC1`: in the series with LNCaP [1], the pEC50 is 4.12.

For the compound `O=C(CN1CCN(c2ccc(C(F)(F)F)cc2[N+](=O)[O-])CC1)N1CCN(c2ccc(C(F)(F)F)cc2[N+](=O)[O-])CC1`, in the series with LNCaP [1], the pEC50 is 4.32.

`O=C(N1CCN(c2ccccn2)CC1)N1CCN(c2ccc([N+](=O)[O-])cc2C(F)(F)F)CC1`: the pEC50 with LNCaP [1] was < 4.10.

As for `O=C(CN1CCN(c2ncccn2)CC1)N1CCN(c2ccc([N+](=O)[O-])cc2)CC1`, the pEC50 in the series on LNCaP [1] is 4.29.

Turning to `O=C(CCl)N1CCN(c2ccc(C(F)(F)F)cc2[N+](=O)[O-])CC1`, in the series on LNCaP [1], the pEC50 is 4.39.

`COc1ccccc1N1CCN(C(=O)CCl)CC1`: the pEC50 in the series on LNCaP [1] is 5.12; in the series on PC-3, < 4.10; in the series on DU-145 it was < 4.10; with LNCaP [12], 5.12. Further, the outcome in [10] was Active. In addition, the fold change (FC) in series [13] was found to be 1.6.

With `COc1ccccc1N1CCN(CC(=O)N2CCN(c3ncccn3)CC2)CC1`, the pEC50 with LNCaP [1] is 4.33.

`O=C(N1CCN(c2ccc([N+](=O)[O-])c(C(F)(F)F)c2)CC1)N1CCN(c2ccccn2)CC1`: the pEC50 in the series on LNCaP [1] is 4.10.

Take `O=C(CN1CCN(c2ccc([N+](=O)[O-])cc2)CC1)N1CCN(c2ncccn2)CC1`: the pEC50 with LNCaP [1] was 4.17.

Turning to `COc1ccccc1N1CCN(CC(=O)N2CCN(c3ccccc3OC)CC2)CC1`, the pEC50 in the series with LNCaP [1] is 4.28.
